Source: patent US12419951B2, “Preparation of zinc risedronate micro/nano adjuvant and use thereof as vaccine adjuvant” (priority 2019, dated 2025)

System: hepatitis B therapeutic protein
Details: same risedronate content as Zn-risedronic acid (1/0.125) group
Procedure: Using the experimental procedure described in Example 4, mice were immunized with zinc risedronate adjuvant in combination with hepatitis B therapeutic protein by intramuscular injection, and serum antibody titers were detected. The specific method was as follows:
Experimental animals: Balb/C mice, 6-8 weeks, 5 mice/group, female.
Immunization protocol: antigen 1.2 μg/mouse, adjuvant and hepatitis B therapeutic protein were mixed at a volume ratio of 1:1 to form a vaccine, and then injected intramuscularly to mice, 150 μL per mouse, and 75 μL on each hind leg. The immunization was performed on the 0th, 2nd, 3rd, 4th, 5th and 6th week, 1.2 μg of antigen per mouse, blood samples were collected from eye socket after the 6th week, and ELISA was used to determine the levels of specific antibodies in serum.

How did the “difference in humoral immune response compared with aluminum adjuvant” value turn out when `O=P(O)(O)C(O)(Cc1cccnc1)P(=O)(O)O` [sodium risedronate, Risedronate sodium] was run?
Its value is “no statistically significant difference”.

And the “humoral immune stimulation effect” value?
Its value is “a certain humoral immune stimulation effect”.
